The results in this text go back to patent US12275731B2, “Azaindole inhibitors of wild-type and mutant forms of LRRK2” (DANA-FARBER CANCER INSTITUTE, INC., priority 2018, dated 2025).

Common to all, as to assay: KinomeScan profiling
Holding throughout (format): binding

In one experiment the target is MARK1 (Homo sapiens, UniProt Q9P0L2). The note with it: MARK1, 1 μM; read-out: % control. In outline:
(§1)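 At 1 μM in DMSO, compounds are run through a broad 468-member kinase panel. The luminescent read-out is normalised so that vehicle gives 100% and a positive control gives 0%; any kinase falling below 35% is treated as a target.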

The target of a further experiment is T1, BRAF (Homo sapiens, UniProt P15056).
T1 construct: purchased KinomeScan®
The following applies: read-out: % control. In outline:
as §1

A further experiment addresses CDK4 (Homo sapiens, UniProt P11802). The following applies: CDK4, 1 μM; read-out: % control. In outline: as §1
The target in another experiment is CSNK2A2 (Homo sapiens, UniProt P19784). The following applies: CSNK2A2, 1 μM; read-out: % control. In outline:
as §1

The target in a further experiment is T2, TAOK3 (Homo sapiens, UniProt Q9H2K8).
T2 sequence (Q9H2K8 1-898): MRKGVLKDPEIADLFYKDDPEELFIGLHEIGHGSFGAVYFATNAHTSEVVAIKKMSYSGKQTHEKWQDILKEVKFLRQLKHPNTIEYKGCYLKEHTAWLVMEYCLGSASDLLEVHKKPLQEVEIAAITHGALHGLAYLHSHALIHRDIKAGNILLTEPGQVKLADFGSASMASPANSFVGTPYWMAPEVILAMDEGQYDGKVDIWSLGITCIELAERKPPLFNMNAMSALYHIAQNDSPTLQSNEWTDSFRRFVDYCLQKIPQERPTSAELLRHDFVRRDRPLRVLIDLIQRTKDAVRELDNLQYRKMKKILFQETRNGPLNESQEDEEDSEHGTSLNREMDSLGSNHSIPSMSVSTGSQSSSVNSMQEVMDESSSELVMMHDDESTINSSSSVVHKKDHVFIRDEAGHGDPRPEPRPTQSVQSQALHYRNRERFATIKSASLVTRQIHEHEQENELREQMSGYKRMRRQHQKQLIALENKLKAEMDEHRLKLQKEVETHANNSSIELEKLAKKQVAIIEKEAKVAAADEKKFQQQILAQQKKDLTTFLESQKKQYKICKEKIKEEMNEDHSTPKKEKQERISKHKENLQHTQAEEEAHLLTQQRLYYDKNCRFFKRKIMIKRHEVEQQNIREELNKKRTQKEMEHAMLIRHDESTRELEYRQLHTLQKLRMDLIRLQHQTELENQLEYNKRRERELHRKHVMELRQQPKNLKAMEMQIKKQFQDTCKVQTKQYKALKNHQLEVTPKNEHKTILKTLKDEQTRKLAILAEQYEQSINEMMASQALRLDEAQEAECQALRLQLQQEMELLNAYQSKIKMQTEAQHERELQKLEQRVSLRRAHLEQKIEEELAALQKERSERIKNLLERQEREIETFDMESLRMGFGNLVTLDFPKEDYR
The following applies: TAOK3, 1 μM; read-out: % control. In outline: as §1

For another experiment, the target named is T3, ABL2 (Homo sapiens, UniProt P42684).
T3 construct: purchased KinomeScan®
The note with it: ABL2, 1 μM; read-out: % control. In outline: as §1

The target in a further experiment is MYO3A (Homo sapiens, UniProt Q8NEV4). The following applies: read-out: % control. Put shortly:
as §1

The target of a further experiment is T4, CASK (Homo sapiens, UniProt O14936).
T4 sequence (O14936 1-926): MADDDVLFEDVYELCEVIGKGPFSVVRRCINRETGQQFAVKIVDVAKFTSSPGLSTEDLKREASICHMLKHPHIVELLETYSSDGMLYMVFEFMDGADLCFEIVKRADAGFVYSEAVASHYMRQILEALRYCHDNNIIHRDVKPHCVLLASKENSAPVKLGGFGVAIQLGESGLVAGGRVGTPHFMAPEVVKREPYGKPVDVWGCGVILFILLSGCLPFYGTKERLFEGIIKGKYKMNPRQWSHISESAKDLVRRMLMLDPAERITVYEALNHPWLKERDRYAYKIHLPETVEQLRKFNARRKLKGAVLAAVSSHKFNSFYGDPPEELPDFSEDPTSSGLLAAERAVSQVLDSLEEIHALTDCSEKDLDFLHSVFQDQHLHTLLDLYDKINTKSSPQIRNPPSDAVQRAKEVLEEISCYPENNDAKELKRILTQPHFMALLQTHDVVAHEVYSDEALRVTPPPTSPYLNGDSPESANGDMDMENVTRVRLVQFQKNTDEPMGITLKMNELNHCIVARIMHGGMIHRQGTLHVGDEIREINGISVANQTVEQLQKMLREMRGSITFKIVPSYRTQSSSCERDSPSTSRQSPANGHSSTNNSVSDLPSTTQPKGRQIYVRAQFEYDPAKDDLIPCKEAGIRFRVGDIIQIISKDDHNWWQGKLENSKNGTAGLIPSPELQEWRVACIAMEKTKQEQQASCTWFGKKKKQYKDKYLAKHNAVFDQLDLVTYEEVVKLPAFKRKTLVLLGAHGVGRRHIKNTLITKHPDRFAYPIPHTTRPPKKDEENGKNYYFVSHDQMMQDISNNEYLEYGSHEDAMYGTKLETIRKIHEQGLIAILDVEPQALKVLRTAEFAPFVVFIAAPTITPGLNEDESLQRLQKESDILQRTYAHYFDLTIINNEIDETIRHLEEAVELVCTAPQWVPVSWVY
The note with it: read-out: % control. In outline:
as §1

Another experiment concerns the target HIPK3 (Homo sapiens, UniProt Q9H422). The following applies: HIPK3, 1 μM; read-out: % control. Put shortly:
as §1

The target of another experiment is PFTAIRE2 (Homo sapiens, UniProt Q96Q40). The following applies: PFTAIRE2, 1 μM; read-out: % control. In outline: as §1
PFTAIRE2, sequence (Q96Q40 whole entry): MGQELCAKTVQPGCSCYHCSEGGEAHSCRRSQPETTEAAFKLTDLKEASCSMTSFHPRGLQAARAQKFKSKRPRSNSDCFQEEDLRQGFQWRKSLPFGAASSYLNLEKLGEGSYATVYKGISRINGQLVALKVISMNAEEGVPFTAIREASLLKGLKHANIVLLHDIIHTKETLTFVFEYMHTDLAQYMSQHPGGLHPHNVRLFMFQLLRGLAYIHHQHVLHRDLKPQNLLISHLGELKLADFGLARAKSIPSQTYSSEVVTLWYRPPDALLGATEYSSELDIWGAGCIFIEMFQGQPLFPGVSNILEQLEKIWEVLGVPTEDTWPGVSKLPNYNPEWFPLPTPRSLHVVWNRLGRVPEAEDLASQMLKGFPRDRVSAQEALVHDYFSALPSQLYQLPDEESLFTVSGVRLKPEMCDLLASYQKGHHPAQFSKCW

CDK4, sequence (P11802 whole entry): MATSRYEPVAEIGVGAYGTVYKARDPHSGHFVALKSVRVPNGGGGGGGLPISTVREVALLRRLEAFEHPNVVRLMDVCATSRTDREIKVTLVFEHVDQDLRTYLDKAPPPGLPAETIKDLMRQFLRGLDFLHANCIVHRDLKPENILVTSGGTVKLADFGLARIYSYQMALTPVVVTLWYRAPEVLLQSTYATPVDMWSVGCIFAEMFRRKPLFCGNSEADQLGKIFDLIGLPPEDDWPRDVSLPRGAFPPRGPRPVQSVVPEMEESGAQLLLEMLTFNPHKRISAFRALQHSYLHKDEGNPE
CSNK2A2, sequence (P19784 whole entry): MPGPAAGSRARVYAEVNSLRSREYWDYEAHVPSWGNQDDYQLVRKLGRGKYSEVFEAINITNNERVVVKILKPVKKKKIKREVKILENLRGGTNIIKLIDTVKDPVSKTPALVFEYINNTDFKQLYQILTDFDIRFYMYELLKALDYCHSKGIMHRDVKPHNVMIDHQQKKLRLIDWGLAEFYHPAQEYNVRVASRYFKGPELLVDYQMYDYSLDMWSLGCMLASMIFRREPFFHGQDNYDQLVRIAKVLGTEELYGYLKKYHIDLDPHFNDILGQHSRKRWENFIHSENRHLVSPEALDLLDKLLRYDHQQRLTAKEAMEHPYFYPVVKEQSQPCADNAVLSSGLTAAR
MYO3A, sequence (Q8NEV4 whole entry): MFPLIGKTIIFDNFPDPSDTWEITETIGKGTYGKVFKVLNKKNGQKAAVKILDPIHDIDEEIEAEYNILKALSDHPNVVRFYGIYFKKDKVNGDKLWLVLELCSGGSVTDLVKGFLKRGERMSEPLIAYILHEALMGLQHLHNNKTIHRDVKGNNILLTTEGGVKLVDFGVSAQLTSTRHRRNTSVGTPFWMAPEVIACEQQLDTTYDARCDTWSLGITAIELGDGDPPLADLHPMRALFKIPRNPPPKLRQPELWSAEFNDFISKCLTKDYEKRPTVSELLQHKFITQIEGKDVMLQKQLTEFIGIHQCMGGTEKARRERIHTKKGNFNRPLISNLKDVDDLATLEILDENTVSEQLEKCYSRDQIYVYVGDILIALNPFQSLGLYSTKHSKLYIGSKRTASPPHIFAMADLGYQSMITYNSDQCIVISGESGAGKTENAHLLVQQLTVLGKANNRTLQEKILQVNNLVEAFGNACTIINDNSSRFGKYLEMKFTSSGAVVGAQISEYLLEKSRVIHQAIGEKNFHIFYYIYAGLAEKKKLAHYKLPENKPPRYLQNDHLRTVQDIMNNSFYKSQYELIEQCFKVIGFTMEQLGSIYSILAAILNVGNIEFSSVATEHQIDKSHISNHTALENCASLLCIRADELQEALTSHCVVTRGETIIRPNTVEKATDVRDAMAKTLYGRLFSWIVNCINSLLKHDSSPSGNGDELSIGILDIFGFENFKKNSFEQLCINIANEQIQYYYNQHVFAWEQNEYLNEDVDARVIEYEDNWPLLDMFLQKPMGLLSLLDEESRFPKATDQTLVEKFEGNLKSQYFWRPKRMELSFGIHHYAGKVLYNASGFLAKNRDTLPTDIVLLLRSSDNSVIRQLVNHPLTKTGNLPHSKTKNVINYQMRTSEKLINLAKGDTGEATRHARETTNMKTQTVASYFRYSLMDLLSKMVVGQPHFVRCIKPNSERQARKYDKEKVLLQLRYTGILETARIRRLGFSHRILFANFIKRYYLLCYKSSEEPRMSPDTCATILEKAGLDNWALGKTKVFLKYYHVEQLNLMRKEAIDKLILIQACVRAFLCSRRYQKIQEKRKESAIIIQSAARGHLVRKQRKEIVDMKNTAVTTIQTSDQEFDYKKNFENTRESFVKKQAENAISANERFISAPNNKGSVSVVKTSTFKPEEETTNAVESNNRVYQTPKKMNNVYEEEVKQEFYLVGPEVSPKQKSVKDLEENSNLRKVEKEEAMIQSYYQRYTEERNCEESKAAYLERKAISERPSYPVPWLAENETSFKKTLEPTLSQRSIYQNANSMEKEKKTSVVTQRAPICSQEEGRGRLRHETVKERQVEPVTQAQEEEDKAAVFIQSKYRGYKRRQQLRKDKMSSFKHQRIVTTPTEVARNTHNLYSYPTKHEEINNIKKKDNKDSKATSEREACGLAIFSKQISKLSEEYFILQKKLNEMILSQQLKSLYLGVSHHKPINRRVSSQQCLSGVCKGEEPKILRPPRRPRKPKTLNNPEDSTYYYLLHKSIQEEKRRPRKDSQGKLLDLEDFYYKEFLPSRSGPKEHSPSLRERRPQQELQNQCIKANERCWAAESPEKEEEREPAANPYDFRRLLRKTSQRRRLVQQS
T1 sequence (P15056 whole entry): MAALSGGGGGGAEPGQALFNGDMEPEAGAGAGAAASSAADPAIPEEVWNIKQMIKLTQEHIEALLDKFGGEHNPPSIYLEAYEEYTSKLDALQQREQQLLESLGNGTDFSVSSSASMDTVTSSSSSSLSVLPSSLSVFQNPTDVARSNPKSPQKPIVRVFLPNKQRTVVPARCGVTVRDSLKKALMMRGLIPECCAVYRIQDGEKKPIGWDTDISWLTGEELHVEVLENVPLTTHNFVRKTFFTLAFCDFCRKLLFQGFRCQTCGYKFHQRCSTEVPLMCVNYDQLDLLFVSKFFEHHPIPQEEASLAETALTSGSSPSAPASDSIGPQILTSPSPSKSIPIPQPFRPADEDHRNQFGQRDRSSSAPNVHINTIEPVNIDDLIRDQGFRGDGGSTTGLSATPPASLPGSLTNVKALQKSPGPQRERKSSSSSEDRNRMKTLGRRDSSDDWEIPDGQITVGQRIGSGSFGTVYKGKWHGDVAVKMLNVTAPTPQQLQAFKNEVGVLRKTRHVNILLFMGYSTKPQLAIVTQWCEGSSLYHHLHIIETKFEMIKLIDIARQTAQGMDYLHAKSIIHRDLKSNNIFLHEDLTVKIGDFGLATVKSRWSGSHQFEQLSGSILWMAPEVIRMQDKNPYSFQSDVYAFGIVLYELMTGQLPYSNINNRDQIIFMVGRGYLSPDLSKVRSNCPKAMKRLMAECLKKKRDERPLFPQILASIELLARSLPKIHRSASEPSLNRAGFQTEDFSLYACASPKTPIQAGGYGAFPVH
T3 sequence (P42684 whole entry): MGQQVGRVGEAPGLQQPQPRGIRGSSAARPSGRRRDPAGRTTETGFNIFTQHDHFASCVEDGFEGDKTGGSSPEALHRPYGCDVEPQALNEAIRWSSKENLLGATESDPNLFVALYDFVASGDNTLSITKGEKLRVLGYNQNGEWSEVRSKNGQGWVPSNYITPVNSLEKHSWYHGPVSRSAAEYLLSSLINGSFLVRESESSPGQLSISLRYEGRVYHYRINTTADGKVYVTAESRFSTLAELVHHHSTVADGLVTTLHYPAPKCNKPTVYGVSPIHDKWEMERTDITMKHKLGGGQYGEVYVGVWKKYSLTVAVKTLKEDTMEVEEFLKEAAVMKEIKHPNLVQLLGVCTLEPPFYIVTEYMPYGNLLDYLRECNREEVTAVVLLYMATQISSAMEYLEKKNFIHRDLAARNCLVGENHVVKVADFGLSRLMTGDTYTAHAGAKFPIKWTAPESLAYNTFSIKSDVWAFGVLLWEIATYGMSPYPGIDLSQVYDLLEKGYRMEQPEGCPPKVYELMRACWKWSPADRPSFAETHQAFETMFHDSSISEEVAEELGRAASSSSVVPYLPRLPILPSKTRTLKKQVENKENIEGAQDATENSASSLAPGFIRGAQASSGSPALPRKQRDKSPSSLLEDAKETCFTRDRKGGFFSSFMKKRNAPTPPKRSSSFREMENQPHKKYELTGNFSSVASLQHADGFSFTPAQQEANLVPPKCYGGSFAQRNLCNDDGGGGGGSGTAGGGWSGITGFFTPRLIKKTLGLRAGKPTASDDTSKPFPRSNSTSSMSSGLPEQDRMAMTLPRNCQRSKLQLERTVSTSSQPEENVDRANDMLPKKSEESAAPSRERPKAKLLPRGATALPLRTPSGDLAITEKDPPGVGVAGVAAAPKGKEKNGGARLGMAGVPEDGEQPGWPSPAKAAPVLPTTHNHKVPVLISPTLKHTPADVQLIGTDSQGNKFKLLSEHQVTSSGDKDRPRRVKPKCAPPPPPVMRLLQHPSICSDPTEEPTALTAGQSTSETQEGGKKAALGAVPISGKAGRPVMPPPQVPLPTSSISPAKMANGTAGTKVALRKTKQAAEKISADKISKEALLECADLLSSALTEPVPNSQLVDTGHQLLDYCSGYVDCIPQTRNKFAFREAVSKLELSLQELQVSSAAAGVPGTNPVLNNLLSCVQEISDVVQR

In the case of `CNc1c(-c2ccc(C(=O)N3CCC(N4CCOCC4)CC3)cc2)cnc2[nH]cc(Cl)c12` [Compound 96, (4-(3-chloro-4-(methylamino)-1H-pyrrolo[2,3-b]pyridin-5-yl)phenyl)(4-morpholinopiperidin-1-yl)methanone], the remaining binding at 1 µM is 72% at MARK1; 90% at BRAF; 98% at CDK4; 92% at CSNK2A2; 91% at TAOK3; 100% on ABL2. In addition, the remaining binding at 1 µM on MYO3A was 64%; on CASK it was 94%; on HIPK3, 79%; on PFTAIRE2, 100%.

In the case of `O=C(c1ccc(-c2cnc3[nH]cc(Cl)c3c2NC2CCCC2)cc1)N1CCC(N2CCOCC2)CC1` [Compound 101, (4-(3-chloro-4-(cyclopentylamino)-1H-pyrrolo[2,3-b]pyridin-5-yl)phenyl)(4-morpholinopiperidin-1-yl)methanone], the remaining binding at 1 µM on MARK1 came to 80%; on BRAF, 84%; on CDK4, 100%; on CSNK2A2, 100%; at TAOK3, 88%; on ABL2, 99%. In addition, the remaining binding at 1 µM at MYO3A is 100%; at CASK, 100%; on HIPK3 it was 100%; at PFTAIRE2, 91%.

For the compound `CNc1c(-c2cnn([C@H]3CCN(C(C)=O)C[C@@H]3F)c2)cnc2[nH]cc(Cl)c12` [Compound 77, 1-((3S,4S)-4-(4-(3-chloro-4-(methylamino)-1H-pyrrolo[2,3-b]pyridin-5-yl)-1H-pyrazol-1-yl)-3-fluoropiperidin-1-yl)ethan-1-one], the remaining binding at 1 µM at MARK1 was found to be 71%; on BRAF it was 91%; at CDK4, 85%; at CSNK2A2 it was 90%; at TAOK3 it was 95%; on ABL2 it was 92%. In addition, the remaining binding at 1 µM on MYO3A worked out at 69%; at CASK it was 95%; at HIPK3, 85%; on PFTAIRE2 it was 100%.
